# Measurements from patent US5430062A, “Stilbene derivatives as anticancer agents” (priority 1993, dated 1995).
# Legend:
# K-562 leukemia = test: Cytotoxicity, K-562; type: cell-based
# Text: (§1) A total of 55 cell lines from the leukemia, non-small cell lung cancer, small cell lung cancer, colon cancer, CNS cancer, melanoma, ovarian cancer, and renal cancer panels were examined.
# MOLT-4 leukemia = test: Cytotoxicity, MOLT-4; type: cell-based; conditions: Homo sapiens, read-out: Log10 GI50, MOLT-4 (converted)
# Text: as §1
# [1] = test system: EKCK non-small cell lung cancer; test: Cytotoxicity, EKCK; type: cell-based; conditions: read-out: Log10 GI50, EKCK (converted)
# Text: as §1
# [2] = test system: HOP-18 non-small cell lung cancer; test: Cytotoxicity, HOP-18; type: cell-based; conditions: Homo sapiens, read-out: Log10 GI50, HOP-18 (converted)
# Text: as §1
# [3] = test system: HOP-62 non-small cell lung cancer; test: Cytotoxicity, HOP-62; type: cell-based; conditions: Homo sapiens, read-out: Log10 GI50, HOP-62 (converted)
# Text: as §1
# [4] = test system: HOP-92 non-small cell lung cancer; test: Cytotoxicity, HOP-92; type: cell-based; conditions: Homo sapiens, read-out: Log10 GI50, HOP-92 (converted)
# Text: as §1
# [5] = test system: NCI-H23 non-small cell lung cancer; test: Cytotoxicity, NCI-H23; type: cell-based; conditions: Homo sapiens, read-out: Log10 GI50, NCI-H23 (converted)
# Text: as §1
# [6] = test system: NCI-H322M non-small cell lung cancer; test: Cytotoxicity, NCI-H322M; type: cell-based; conditions: Homo sapiens, read-out: Log10 GI50, NCI-H322M (converted)
# Text: as §1
# [7] = test system: NCI-H460 non-small cell lung cancer; test: Cytotoxicity, NCI-H460; type: cell-based; conditions: Homo sapiens, read-out: Log10 GI50, NCI-H460 (converted)
# Text: as §1
# [8] = test system: LXFL 529 non-small cell lung cancer; test: Cytotoxicity, LXFL 529; type: cell-based; conditions: Homo sapiens, read-out: Log10 GI50, LXFL 529 (converted)
# Text: as §1
# [9] = test system: DMS114 small cell lung cancer; test: Cytotoxicity, DMS114; type: cell-based; conditions: Homo sapiens, DMS-114; read-out: Log10 GI50, DMS114 (converted)
# Text: as §1
# HCT-116 colon cancer = test: Cytotoxicity, HCT-116; type: cell-based; conditions: Homo sapiens, read-out: Log10 GI50, HCT-116 (converted)
# Text: as §1
# HCT-15 colon cancer = test: Cytotoxicity, HCT-15; type: cell-based; conditions: Homo sapiens, read-out: Log10 GI50, HCT-15 (converted)
# Text: as §1
# KM12 colon cancer = test: Cytotoxicity, KM12; type: cell-based; conditions: Homo sapiens, read-out: Log10 GI50, KM12 (converted)
# Text: as §1
# KM20L2 colon cancer = test: Cytotoxicity, KM20L2; type: cell-based; conditions: Homo sapiens, KM-20L2; read-out: Log10 GI50, KM20L2 (converted)
# Text: as §1
# SW-620 colon cancer = test: Cytotoxicity, SW-620; type: cell-based; conditions: Homo sapiens, read-out: Log10 GI50, SW-620 (converted)
# Text: as §1
# SF-268 CNS cancer = test: Cytotoxicity, SF-268; type: cell-based; conditions: Homo sapiens, SF-268, read-out: Log10 GI50, SF-268 (converted)
# Text: as §1
# SF-539 CNS cancer = test: Cytotoxicity, SF-539; type: cell-based; conditions: Homo sapiens, read-out: Log10 GI50, SF-539 (converted)
# Text: as §1
# SNB-75 CNS cancer = test: Cytotoxicity, SNB-75; type: cell-based; conditions: Homo sapiens, read-out: Log10 GI50, SNB-75 (converted)
# Text: as §1
# U251 CNS cancer = test: Cytotoxicity, U251; type: cell-based; conditions: Homo sapiens, U-251; read-out: Log10 GI50, U251 (converted)
# Text: as §1
# XF498 CNS cancer = test: Cytotoxicity, XF498; type: cell-based; conditions: Homo sapiens, read-out: Log10 GI50, XF498 (converted)
# Text: as §1
# LOX IMVI melanoma = test: Cytotoxicity, LOX IMVI; type: cell-based; conditions: Homo sapiens, read-out: Log10 GI50, LOX IMVI (converted)
# Text: as §1
# MALME-3M melanoma = test: Cytotoxicity, MALME-3M; type: cell-based; conditions: Homo sapiens, read-out: Log10 GI50, MALME-3M (converted)
# Text: as §1
# M19-MEL melanoma = test: Cytotoxicity, M19-MEL; type: cell-based; conditions: Homo sapiens, read-out: Log10 GI50, M19-MEL (converted)
# Text: as §1
# UACC-62 melanoma = test: Cytotoxicity, UACC-62; type: cell-based; conditions: Homo sapiens, read-out: Log10 GI50, UACC-62 (converted)
# Text: as §1
# IGROVI ovarian cancer = test: Cytotoxicity, IGROVI; type: cell-based; conditions: read-out: Log10 GI50, IGROVI (converted)
# Text: as §1
# OVCAR-4 ovarian cancer = test: Cytotoxicity, OVCAR-4; type: cell-based; conditions: Homo sapiens, read-out: Log10 GI50, OVCAR-4 (converted)
# Text: as §1
# OVCAR-8 ovarian cancer = test: Cytotoxicity, OVCAR-8; type: cell-based; conditions: Homo sapiens, read-out: Log10 GI50, OVCAR-8 (converted)
# Text: as §1
# SK-OV-3 ovarian cancer = test: Cytotoxicity, SK-OV-3; type: cell-based; conditions: Homo sapiens, read-out: Log10 GI50, SK-OV-3 (converted)
# Text: as §1
# A498 renal cancer = test: Cytotoxicity, A498; type: cell-based; conditions: Homo sapiens, read-out: Log10 GI50, A498 (converted)
# Text: as §1
# SN12C renal cancer = test: Cytotoxicity, SN12C; type: cell-based; conditions: Homo sapiens, read-out: Log10 GI50, SN12C (converted)
# Text: as §1
# TK-10 renal cancer = test: Cytotoxicity, TK-10; type: cell-based; conditions: Homo sapiens, read-out: Log10 GI50, TK-10 (converted)
# Text: as §1
# COLO 205 colon cancer = test: Cytotoxicity, COLO 205
structure (smiles),measurement,setting,value
"COc1cc(CNc2ccc(C)cc2)cc(OC)c1OC.Cl [110a, 4-Methyl-N-(3,4,5-trimethoxybenzyl)aniline Hydrochloride]",GI50,"K-562 leukemia; Homo sapiens, K562, read-out: Log10 GI50, K-562 (converted)",< 100 nM
same,"Log10 GI50, K-562",K-562 leukemia; Hydrochloride,-7.00
same,GI50,MOLT-4 leukemia,427 nM
same,GI50,[1],741 nM
same,GI50,[2],37200 nM
same,GI50,[3],282 nM
same,GI50,[4],18600 nM
same,GI50,[5],407 nM
same,GI50,[6],501 nM
same,GI50,[7],214 nM
same,GI50,[8],631 nM
same,GI50,[9],427 nM
same,GI50,HCT-116 colon cancer,575 nM
same,GI50,HCT-15 colon cancer,245 nM
same,GI50,KM12 colon cancer,759 nM
same,GI50,KM20L2 colon cancer,251 nM
same,GI50,SW-620 colon cancer,110 nM
same,GI50,SF-268 CNS cancer,912 nM
same,GI50,SF-539 CNS cancer,316 nM
same,GI50,SNB-75 CNS cancer,389 nM
same,GI50,U251 CNS cancer,331 nM
same,GI50,XF498 CNS cancer,468 nM
same,GI50,LOX IMVI melanoma,851 nM
same,GI50,MALME-3M melanoma,468 nM
same,GI50,M19-MEL melanoma,331 nM
same,GI50,UACC-62 melanoma,575 nM
same,GI50,IGROVI ovarian cancer,708 nM
same,GI50,OVCAR-4 ovarian cancer,21400 nM
same,GI50,OVCAR-8 ovarian cancer,759 nM
same,GI50,SK-OV-3 ovarian cancer,269 nM
same,GI50,A498 renal cancer,> 100000 nM
same,GI50,SN12C renal cancer,851 nM
same,GI50,TK-10 renal cancer,> 100000 nM
same,"Log10 GI50, COLO 205",COLO 205 colon cancer,-6.67
same,GI50,"COLO 205 colon cancer; read-out: cytotoxicity GI50, COLO 205, 50% growth inhibition, average of two determinations, 8640 min, Hydrochloride, 8640 min",219 nM
